{
  "source": "patent US7470707B2",
  "about": "“Crystalline monohydrate clopidogrel naphthalenedisulfonate and process of preparation” (Hanmi Pharm. Co., Ltd, priority 2004, dated 2008)",
  "experimental": "Effects on the bleeding time of the conventional clopidogrel hydrogen sulfate obtained in Comparative Example 1 and the inventive clopidogrel 2-naphthalenesulfonate and clopidogrel 1,5-naphthalenedisulfonate monohydrate obtained in Examples 1 and 2, respectively, were tested using rat in accordance with the standard method (see Dejana E & Villa S, Thromb. Haemostas. 48: 108-111, 1982). The bleeding time is an index representing the extent of thrombus formed by platelet aggregation and tests were performed using male and female rats.\nForty 11 to 12-weeks old male and female Sprague-Dawley rats (average weight: 270±25 g) were divided into four groups each consisting of five male rats and five female rats, and the male rats of the first group were each orally administered with 5.0 mg/kg of clopidogrel hydrogen sulfate (3.83 mg/kg as clopidogrel) and the female rats of the first group were each orally administered with 2.5 mg/kg (1.92 mg/kg as clopidogrel). For the second group, the male and female rats were orally each administered with 6.30 mg/kg and 3.15 mg/kg of clopidogrel 2-naphthalenesulfonate, respectively, and for the third group, the male and female rats were each orally administered with 5.65 mg/kg and 2.83 mg/kg of clopidogrel 1,5-naphthalenedisulfonate monohydrate, respectively. The drug was orally administered in the form of 1% DMSO solution in an amount in volume of 10 ml/kg body weight. As a comparison, only 1% DMSO solution was administered to the last group of rats.\nAfter fixing an unanesthetized rat with an experimental holder, the tail of the rat was pierced at a position of 1.5 cm from the end of tail using a need of 26 G×½, 0.45×13 mm at a depth of 1 mm. The time of bleeding to cease was measured with absorbing the bleeding blood on a filter paper every 10 second.",
  "key": {"[1]": {"details": "Female Sprague-Dawley rats, oral dose corresponding to 1.92 mg/kg of clopidogrel"}, "[2]": {"details": "Male Sprague-Dawley rats, oral dose corresponding to 3.83 mg/kg of clopidogrel"}},
  "note": "Where a name gives a salt, the structure may show the parent alone. Read-outs that look alike come from different tables or passages of the source.",
  "data": [
    {"smiles": "COC(=O)[C@H](c1ccccc1Cl)N1CCc2sccc2C1", "note": "[1,5-Naphthalenedisulfonate monohydrate, Clopidogrel 1,5-naphthalenedisulfonate Monohydrate]", "values": [
      {"measurement": "Bleeding time", "setting": "Female Sprague-Dawley rats, oral dose corresponding to 1.92 mg/kg of clopidogrel, Monohydrate", "value": "152.5 ± 3.5", "unit": "s"},
      {"measurement": "Bleeding time", "setting": "Male Sprague-Dawley rats, oral dose corresponding to 3.83 mg/kg of clopidogrel, Monohydrate", "value": "163 ± 5.8", "unit": "s"}
    ]},
    {"smiles": "COC(=O)[C@H](c1ccccc1Cl)N1CCc2sccc2C1", "note": "[2-Naphthalenesulfonate, Clopidogrel 2-naphthalenesulfonate]", "values": [
      {"measurement": "Bleeding time", "setting": "[1]", "value": "157 ± 10.6", "unit": "s"},
      {"measurement": "Bleeding time", "setting": "[2]", "value": "190 ± 5.0", "unit": "s"}
    ]},
    {"smiles": "COC(=O)[C@H](c1ccccc1Cl)N1CCc2sccc2C1", "note": "[Hydrogen sulfate, Clopidogrel Hydrogen Sulfate, reference compound]", "values": [
      {"measurement": "Bleeding time", "setting": "[1]", "value": "127.5 ± 10.6", "unit": "s"},
      {"measurement": "Bleeding time", "setting": "[2]", "value": "135 ± 8.7", "unit": "s"}
    ]}
  ]
}
